The target of assay [1] is T1, cruzipain (Trypanosoma cruzi, UniProt P25779).
T1 construct: endogenous in cells; host or cells: T. cruzi epimastigotes, Tulahuen 2 strain
Description: Inhibition of T. cruzi cruzipain (Z-Phe-Arg-AMC fluorogenic substrate). The assay is classed as biochemical. Conditions: percentage of enzymatic inhibition at 100 μM; read-out: Cruzipain % Inhib100. The method, then: Initially, we tested the dithioles as inhibitors of the protease cruzipain from T. cruzi at a concentration of 100 μM.
Cruzipain was purified to homogeneity from epimastigotes of the Tulahuen 2 strain by ConA-Sepharose affinity chromatography, as previously described. Cruzipain (2.5 μM ε = 58,285 M^−1·cm^−1) was incubated in 50 mM acetate buffer pH 5.5 with 50 mM DTT and 100 μM inhibitor was added, shaking the solution for 15 min at 27 °C. The derivatives were added diluted in DMSO, and the controls contained the same solvent concentration. The concentration of DMSO never exceeded 1% in the reaction medium. E-64 was used as a positive control of inhibition. Then, the fluorogenic substrate Z-Phe-Arg-AMC (100 μM) was added and the fluorescence was measured during 10 min at intervals of 3 s (excitation at 350 nm and emission at 460 nm) using a Varioskan Flash Spectrophotometer. From the slope of the negative control, we calculated the total (100%) enzyme activity, while the slopes obtained in the presence of the compounds yielded the percentage of remaining enzyme activity. The percentage of enzyme inhibition was determined as […]. The experiments were done in duplicate.

Assay [2] has as its target T1, cruzipain. Described as above. The assay is classed as biochemical. Conditions: isolated enzyme.
Assay [3] deals with J774.1 murine macrophages. Description: Unspecific in vitro cytotoxicity of mammalian cells (MTT). Format: cell-based. Particulars: Mus musculus, 48 h exposure, read-out: IC50 against Macrophages. How it is done: To evaluate the anti-trypanosomal activity of the synthesized 3H-[1,2]dithioles we used T. cruzi, Tulahuen 2 strain (discrete typing unit, DTU, TcVI [18]) in the epimastigote form. […] To establish the selectivity of the compounds against the parasite, unspecific cytotoxicity against mammalian cells (J774.1 murine macrophages) was studied for the most relevant derivatives. The selectivity indexes (SI) were also determined (Table 1).
J774.1 murine macrophage cells (ATCC, Manassas, VA, USA) were grown in DMEM culture milieu containing 4 mM L-glutamine and supplemented with 10% heat-inactivated fetal calf serum. […] Afterwards, cells were exposed for 48 h to the compounds (25–400 μM) or vehicle for control (0.4% DMSO), and additional controls (cells in medium) were used in each test. Cell viability was then assessed by measuring the mitochondria-dependent reduction of MTT (3-(4,5-dimethylthiazol-2-yl)-2,5-diphenyltetrazolium bromide) to formazan. For this purpose, MTT in sterile PBS (0.2% glucose) pH 7.4 was added to the macrophages to achieve a final concentration of 0.1 mg/mL and the cells were incubated at 37 °C for 3 h. After removing the medium, formazan crystals were dissolved in 180 μL of DMSO and 20 μL of MTT buffer (0.1 M glycine, 0.1 M NaCl, 0.5 mM EDTA, pH 10.5) and the absorbance at 560 nm was measured. The IC50 was defined as the drug concentration at which 50% of the cells were viable, relative to the control (no drug added), and was determined by analysis using OriginLab8.5® sigmoidal regression (% of viable cells vs. logarithm of the compound concentration). Samples were performed in triplicate.

The subject of assay [4] is membrane sterol biosynthesis in epimastigotes of Y strain of T. cruzi. Description: Inhibition of membrane sterol biosynthesis (qualitative TLC). Particulars: compounds at their IC50, 72 h, 28 °C, compared to control. The assay is classed as cell-based, Trypanosoma cruzi. The method, then:
To do so, we analyzed the accumulation or depletion of some intermediates or final products of this biochemical pathway. Qualitative analyses were performed by thin layer chromatography (TLC).
The parasites, epimastigotes of Y strain of T. cruzi (DTU Tc II), were grown in 6 mL of BHT milieu in culture bottles. […] A negative control was performed with parasites in the absence of compounds. […] The extraction of membrane sterols was performed on completion of the incubation. For this purpose, the content of the culture bottle was centrifuged at 3000 rpm for 10 min, the supernatant was discarded and the pellet was suspended in sodium phosphate buffer solution (6 mL, 0.05 M, pH 7.4). Then it was centrifuged again at 3000 rpm for 10 min and the supernatant was discarded. The resulting pellet was resuspended in a chloroform/methanol (2:1) mixture (5 mL) and the suspension was kept at 4 °C for 12 h. Then, a saturated NaCl solution (5 mL) was added and the mixture extracted once with chloroform (3 mL) and once with hexane (3 mL) with care to avoid taking any aqueous phase. The extracted volume was applied to a silica gel TLC plate. Chromatography was performed eluting with hexane, two runs to identify squalene, and once with hexane/EtOAc (8:2) for ergosterol. […] Also, controls and commercial samples of ergosterol, lanosterol, cholesterol and squalene were run on the TLC plate. […]

For orientation: IC50 means the concentration at which inhibition is half-maximal.

Structures are written as SMILES.

T1 sequence (P25779 123-467): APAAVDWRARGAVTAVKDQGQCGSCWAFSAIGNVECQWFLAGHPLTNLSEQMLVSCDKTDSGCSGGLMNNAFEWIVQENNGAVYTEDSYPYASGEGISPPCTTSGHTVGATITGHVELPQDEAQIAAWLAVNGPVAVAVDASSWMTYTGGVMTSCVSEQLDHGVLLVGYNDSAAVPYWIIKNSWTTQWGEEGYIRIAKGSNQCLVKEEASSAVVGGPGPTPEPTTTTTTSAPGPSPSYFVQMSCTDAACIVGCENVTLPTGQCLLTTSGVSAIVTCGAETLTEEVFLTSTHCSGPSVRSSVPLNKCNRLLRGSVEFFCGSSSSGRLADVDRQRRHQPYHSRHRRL

`CC(=O)COc1ccc(C2=C/C(=C(\SCC(C)=O)C(C)=O)SS2)cc1` [Derivative 2]: the inhibition at 100 µM on cruzipain [1] amounted to 91.3 ± 2.8%. In addition, the IC50 turned out to be 15.5 ± 2.7 µM against cruzipain [2] and 24 ± 1 µM in assay [3]. The “Changes in membrane sterols and intermediates (squalene, ergosterol)” value in assay [4] was “accumulate squalene and deplete ergosterol”.

The record behind these values is publication PMC6332334, “3-H-[1,2]Dithiole as a New Anti-Trypanosoma cruzi Chemotype: Biological and Mechanism of Action Studies” (Molecules, 2015).
